Measurements taken from patent US20240262844A1, “PYRIDINIUM SALTS AND METHODS OF USE” (UNIVERSITY OF WYOMING, priority 2023, published 2024).
Structures can show the parent of a compound that is named as a salt.

What was measured:
[1] = target: T1, recombinant NPM1 C-terminal domain (residues 240-294) (Homo sapiens, UniProt P06748); experiment: In vitro NPM1 C-terminal domain labeling (Western); assay type: biochemical
T1 construct: made in house; host or cells: NiCo21(DE3) E. coli
Description: NPM1 Construct design: NPM1 residues 240-294 corresponding to the C-terminal DNA binding domain were fused to a combined 6×His-maltose binding protein (MBP) solubility tag on the N-terminus. An HRV 3C protease cleavage sequence (LEVLFQ/GP) was placed between the tags and NPM1 sequence and upon cleavage the remaining GP sequence corresponds to the NPM1 240-241 residues resulting in a natural peptide sequence without additional residues.
In vitro NPM1 C-terminal domain labeling and characterization: Labeling of recombinant NPM1 with the pyridinium salt 2b was performed with the following conditions: 10 μM NPM1 was treated with DMSO or 100 μM pyridinium salt 2b (2% DMSO) in 50 mM HEPES pH 7.5, 150 mM NaCl, 1.5 mM MgCl2, and 100 μM glutathione (GSH). Samples were irradiated at 450 nm (Kessil PR160L-440) at 100% intensity for 15 minutes at room temperature or 50° C. The reaction mixture was quenched with the addition of 4X LDS buffer (Invitrogen) containing 10 mM DTT (Pierce) and boiled for 10 minutes before resolving proteins on 4-12% Bis-Tris NuPAGE gels (Invitrogen), transferred onto a Trans-Blot Turbo Mini 0.2 μm nitrocellulose membrane (BioRad), blocked with 5% BSA in tris-buffered saline with Tween-20 (TBST), and incubated with HRP-linked anti-biotin (Cell Signaling Technology, #7075).

[2] = target: T2, NPM1 (Homo sapiens, UniProt P06748); experiment: In-situ labeling and enrichment of NPM1 in HEK293T cells (MS-MS, Western); assay type: cell-based
T2 construct: endogenous in cells; host or cells: HEK293T
Experimental: Cell culture and in-situ tryptophan probe treatment: Cell lines were cultured at 37° C. with 5% C02. Human embryonic kidney 293 cells expressing a mutant version of the SV40 large T antigen (HEKT293T cells) were grown in Dulbecco's Modified Eagle Medium (DMEM, Gibco) supplemented with 10% fetal bovine serum and 1% penicillin/streptomycin. For in-situ labeling, cells were grown to 90% confluence, washed with Dulbecco's phosphate buffered saline (DPBS), treated with 100x stocks of the tryptophan probes (the pyridinium salts) in OptiMem (GibCo) to generate final concentrations (0 μM, 1 μM, 10 μM, and 100 μM) in 1% dimethylsulfoxide (DMSO). Cells were incubated for 1 hour at 37° C. with 5% C02 followed by photo-activation at the respective wavelengths for 20 minutes at 4° C. Cells were harvested with a cell scraper, washed 3× with DPBS, and pellets were stored at −80° C. until further use. […]
In-situ tryptophan probe sample processing for peptide-level characterization: Cell pellets were lysed via sonication (QSonica) at 50% amplitude, 2 seconds ON, 3 seconds OFF, 30 seconds in 40 mM HEPES pH 7.5 (4-(2-hydroxyethyl)-1-piperazineethanesulfonic acid), 1.5 mM magnesium chloride (MgCl2), 1% Sodium dodecyl sulfate (SDS), 0.8% NP-40 (also known as nonyl phenoxypolyethoxylethanol), and 1x protease inhibitors (Thermo). Protein concentration was determined by BCA (Pierce). […]
In-situ tryptophan probe sample processing for protein-level identification: Cell pellets were lysed via sonication (QSonica) at 50% amplitude, 2 seconds ON, 3 seconds OFF, 30 seconds in 50 mM HEPES pH 7.5, 1.5 mM MgCl2, 1% SDS, 0.8% NP-40, and 1x protease inhibitors (Thermo). Protein concentration was determined by BCA (Pierce). […]

[3] = chemoproteomic profiling, HEK293T cells

T2 sequence (P06748 whole entry): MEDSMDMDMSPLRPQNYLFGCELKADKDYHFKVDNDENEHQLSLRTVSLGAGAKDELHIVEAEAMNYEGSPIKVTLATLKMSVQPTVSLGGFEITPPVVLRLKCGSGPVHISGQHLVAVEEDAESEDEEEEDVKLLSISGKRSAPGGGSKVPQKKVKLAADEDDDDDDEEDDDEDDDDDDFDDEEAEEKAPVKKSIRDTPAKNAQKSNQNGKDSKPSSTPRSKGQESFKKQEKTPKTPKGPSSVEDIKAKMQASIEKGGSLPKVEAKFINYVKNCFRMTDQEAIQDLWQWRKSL
T1 sequence (P06748 240-294): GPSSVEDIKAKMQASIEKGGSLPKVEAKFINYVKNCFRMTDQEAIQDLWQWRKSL

SMILES | labeling of the construct (Western analysis) ([1]; 10 μM NPM1, 100 μM probe, 100 μM glutathione, about 440 nm, about 15 minutes) | temperature dependence of labeling ([1]; labeling at about 50° C. versus room temperature) | in-situ labeled tryptophan residue [2, 3] | labeling of Trp288 [2, 3] | NPM1 in enriched protein mixture (Western analysis) ([2]; cultures irradiated with blue light in the presence of probe, protein-level enrichment)
COc1ccc2cc(-c3cc(C)[n+](N(C)C(=O)OCCCCC[C@H]4SC[C@H]5NC(=O)N[C@H]54)c(C)c3)ccc2c1 (stereo in doubt) [Pyridinium salt 2b, 4-(6-methoxynaphthalen-2-yl)-2,6-dimethyl-1-(methyl(((5-((3aR,4R,6aS)-2-oxohexahydro-1H-thieno[3,4-d]imidazol-4-yl)pentyl)oxy)carbonyl)amino)pyridin-1-ium tetrafluoroborate] | photo-dependent labeling | higher level of labeling | – | – | –
COc1ccc2cc(-c3cc(C)[n+](N(C)C(=O)OCCCCCCN=[N+]=[N-])c(C)c3)ccc2c1 [Pyridinium salt 2d, 1-((((6-azidohexyl)oxy)carbonyl)(methyl)amino)-4-(6-methoxynaphthalen-2-yl)-2,6-dimethylpyridin-1-ium tetrafluoroborate] | – | – | Trp290 | not labeled | found to contain both proteins
